Results: patent US7049312B1, “Benzothiazinone and benzoxazinone compounds” (Abbott GmbH & Co. KG, priority 1999, dated 2006)

melting point [°C] | Compound
253 to 256 | S=C1Nc2ccccc2SC1=Cc1c[nH]c2ccccc12 [Example 268, 2-[(Indol-3-yl)methylene]-2H-1,4-benzothiazine-3(4H)-thione]
287 to 290 | S=C1Nc2ccccc2SC1=Cc1c[nH]c2ncccc12 [Example 269, 2-[(7-azaindol-3-yl)methylene]-2H-1,4-benzothiazine-3(4H)-thione]
205 to 206 | S=C1Nc2ccccc2SC1=Cc1ccc[nH]1 [Example 270, 2-[(pyrrol-2-yl)methylene]-2H-1,4-benzothiazine-3(4H)-thione]
241 to 243 | S=C1Nc2ccccc2OC1=Cc1ccc[nH]1 [Example 271, 2-[(Pyrrol-2-yl)methylene]-2H-1,4-benzoxazin-3 (4H)-thione]
275 to 277 | S=C1Nc2ccccc2OC1=Cc1c[nH]c2ccccc12 [Example 272, 2-[(indol-3-yl)methylene]-2H-1,4-benzoxazin-3(4H)-thione]
204 to 205 | ON=C1Nc2ccccc2SC1=Cc1ccc[nH]1 [Example 273, 3-Hydroxyimino-2-[(pyrrol-2-yl)methylene]-2H-1,4-benzothiazine]
182 to 185 | CC(=O)ON=C1Nc2ccccc2SC1=Cc1ccc[nH]1 [Example 276, 3-Acetyloxyimino-2-[(pyrrol-2-yl)methylene]-2H-1,4-benzothiazine]
188 to 189 | O=C(ON=C1Nc2ccccc2SC1=Cc1ccc[nH]1)c1ccccc1 [Example 277, 3-Benzoyloxyimino-2-[(pyrrol-2-yl)methylene]-2H-1,4-benzothiazine]
192 to 194 | ON=C1Nc2ccccc2OC1=Cc1ccc[nH]1 [Example 278, 3-Hydroxyimino-2-[(pyrrol-2-yl)methylene]-2H-1,4-benzoxazine]
318 to 320 | O=C1Nc2ccccc2S(=O)(=O)C1=Cc1c[nH]c2ccccc12 [Example 280, 1,1-Dioxo-2-[(indol-3-yl)methylene]-2H-1,4-benzothiazin-3(4H)-one]
250 to 251 | COc1ccc(NC=C2C(=O)Nc3ccccc3S2(=O)=O)cc1 [Example 285, 1,1 Dioxo-2-[(4-methoxyphenylamino)methylene]-2H-1,4-benzothiazin-3(4H)-one]
223 to 225 | O=C1Nc2ncccc2OC1=Cc1ccccc1 [Example 297, 2-(Phenylmethylene)-2H-pyrido[3,2-b][1,4]oxazin-3(4H)-one]

Compound | melting point [°C]
CC(=O)OCCCCn1cc(C=C2Sc3ccccc3NC2=O)c2cccnc21 [Example 131, 2-{[1-(4-Acetoxybutyl)-7-azaindol-3-yl]methylene}-2H-1,4-benzothiazine-3(4H)-one] | 158 to 160
